Measurements published in patent US20130090377A1, “COMPOSITION COMPRISING COUMESTROL OR A BEAN EXTRACT CONTAINING COUMESTROL” (AMOREPACIFIC CORPORATION, priority 2010, published 2013).

Experiments:
[1] = test system: C2C12 muscle cells; experiment: Quantity of mitochondria in cells by fluorescence after MitoTracker Green staining; assay type: cell-based, mouse; details: coumestrol-treated C2C12 muscle cells, FIG. 3
Description: (§1) C2C12 muscle cells derived from mouse (mouse myoblasts, ATCC) were differentiated for a week and then treated with […] coumestrol for 24 hours. Then, the expression of mitochondria-associated genes was confirmed at the protein level by western blotting. The tested genes were PGC1 which induces mitochondria biosynthesis and NDUFA9 and ATP5a which are proteins that constitute the mitochondrial electron transport chain.
Also, the quantity of mitochondria in cells was measured by fluorescence after staining with MitoTracker Green (Invitrogen).

[2] = test system: C2C12 muscle cells; experiment: Expression of mitochondria-associated genes at the protein level by western blotting in differentiated C2C12 muscle cells; assay type: cell-based, mouse; parameters: dose or concentration left out as unconfirmed; details: coumestrol for 24 hours, C2C12 differentiated for a week, FIG. 2
Description: as §1

[3] = molecular target: T1, SIRT1 (Homo sapiens, UniProt Q96EB6); experiment: SIRT1 activity assay kit (Biomol), SIRT1 activating effect; assay type: biochemical; details: FIG. 1
T1 construct: Biomol
T1 sequence (Q96EB6 1-747): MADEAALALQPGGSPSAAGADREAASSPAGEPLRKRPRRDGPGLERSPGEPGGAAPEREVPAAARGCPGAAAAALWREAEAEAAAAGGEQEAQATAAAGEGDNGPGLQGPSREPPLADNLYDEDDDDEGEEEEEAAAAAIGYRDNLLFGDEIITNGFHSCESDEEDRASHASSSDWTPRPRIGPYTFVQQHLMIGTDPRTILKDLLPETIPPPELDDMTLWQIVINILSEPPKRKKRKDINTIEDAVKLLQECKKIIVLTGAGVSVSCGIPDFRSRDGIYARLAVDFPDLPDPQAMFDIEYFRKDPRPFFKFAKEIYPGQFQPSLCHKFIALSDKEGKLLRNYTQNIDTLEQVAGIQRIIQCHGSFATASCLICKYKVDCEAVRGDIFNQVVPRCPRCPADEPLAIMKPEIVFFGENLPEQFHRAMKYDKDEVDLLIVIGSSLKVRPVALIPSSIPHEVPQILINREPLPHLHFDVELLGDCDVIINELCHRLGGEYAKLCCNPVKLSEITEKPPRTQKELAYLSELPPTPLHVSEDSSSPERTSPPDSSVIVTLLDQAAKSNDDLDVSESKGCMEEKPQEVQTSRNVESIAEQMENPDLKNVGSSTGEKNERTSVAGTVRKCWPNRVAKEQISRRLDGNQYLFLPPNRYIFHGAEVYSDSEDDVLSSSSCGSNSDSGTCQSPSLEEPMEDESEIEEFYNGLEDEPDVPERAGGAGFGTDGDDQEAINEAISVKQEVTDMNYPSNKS
Description: It was tested whether coumestrol can activate SIRT1 using the SIRT1 activity assay kit (Biomol). Cells were treated with 10 μM coumestrol. 50 µM resveratrol (Res), which is known to activate SIRT1, was used as positive control and 1 mM nicotinamide (NAM), which is an inhibitor of SIRT1, was used as negative control.

O=c1oc2cc(O)ccc2c2oc3cc(O)ccc3c12 [coumestrol, 3,9-dihydroxy-6H-benzofuro(3,2-c)(1)benzopyran-6-one]
quantity of mitochondria in cells vs untreated group [1]: remarkable increase
expression of mitochondria-associated genes (PGC1, NDUFA9, ATP5a) at the protein level vs untreated group [2]: remarkable increase
SIRT1 activating effect compared with resveratrol (positive control) ([3]; 10 μM coumestrol vs 50 µM resveratrol): comparable to that of resveratrol
SIRT1 activity relative to the untreated group ([3]; 10 μM coumestrol): increased
